Each block holds one compound with its values, some of them ahead of it.
How the values were obtained:
[1] = Storing at room temperature under 100% RH for 10 days, analysed by XRD; type: physicochemical
Protocol: In the following examples, the forms of Fluvastatin Sodium were identified using a Scintag X-ray powder diffractometer model X'TRA with a solid state detector. Copper radiation of 1.5418 Å was used. The sample holder was a round standard aluminum sample holder with rough zero background. The scanning parameters were range: 2-40 degrees two-theta; scan mode: continuous scan; step size: 0.05 deg.; and a rate of 5 deg/min. The water content of the samples was determined by the method known as Karl Fisher (KF). […] The samples stored under 100% RH had about 25% water content.

[2] = Storing at room temperature under 0-60% RH for 10 days, analysed by XRD and KF; type: physicochemical; settings: for form found by XRD at the end of the storage time / water content after storage: room temperature
Protocol: Copper radiation of 1.5418 Å was used. The sample holder was a round standard aluminum sample holder with rough zero background. The scanning parameters were range: 2-40 degrees two-theta; scan mode: continuous scan; step size: 0.05 deg.; and a rate of 5 deg/min. The water content of the samples was determined by the method known as Karl Fisher (KF). […] Before and after the storage time the sample was analyzed by XRD. […] Before and after the storage time the sample was analyzed by XRD and KF.

[3] = Heating of Fluvastatin Sodium Form CVI in oven, analysed by XRD and KF; type: physicochemical
Protocol: In the following examples, the forms of Fluvastatin Sodium were identified using a Scintag X-ray powder diffractometer model X'TRA with a solid state detector. Copper radiation of 1.5418 Å was used. The sample holder was a round standard aluminum sample holder with rough zero background. The scanning parameters were range: 2-40 degrees two-theta; scan mode: continuous scan; step size: 0.05 deg.; and a rate of 5 deg/min. The water content of the samples was determined by the method known as Karl Fisher (KF).

[4] = Form A compared with the amorphous form; Form B as stated; cited from earlier work
[5] = 0% RH, listed as fluvastatin Sodium Form CVI

water content after storage [1]: about 25%
form found by XRD after storage ([1]; room temperature): Fluvastatin Na Form LXVI
form found by XRD at the end of the storage time ([2]; 0% RH): amorphous Fluvastatin Sodium
water content after storage ([2]; 0% RH): 4%
form found by XRD at the end of the storage time ([2]; 60% RH): amorphous Fluvastatin Sodium
Compound: CC(C)n1c(/C=C/C(O)C[C@@H](O)CC(=O)O)c(-c2ccc(F)cc2)c2ccccc21 (stereo partly drawn) [amorphous fluvastatin sodium, fluvastatin sodium]

water content (KF) after heating ([3]; 80 C, 1 hour): about 2%
water content (KF) after heating ([3]; 80 C, 1 hour, listed as Fluvastatin Na Form CVI): 2%
conversion into fluvastatin sodium Form LXVI ([3]; heating to about 80° C. for about 1 hour): ≤ 10%
form found by XRD after heating ([3]; oven, 80 C, 1 hour): Fluvastatin Sodium Form CVI
form found by XRD at the end of the storage time [2, 5]: Fluvastatin Sodium Form CVI
water content after storage [2, 5]: 3%
form found by XRD at the end of the storage time ([2]; 60% RH, listed as fluvastatin Sodium Form CVI): Fluvastatin Sodium Form CVI
conversion into fluvastatin sodium Form LXVI ([2]; relative humidity about 0% to about 60%): ≤ 10%
Compound: CC(C)n1c(/C=C/C(O)C[C@@H](O)CC(=O)O)c(-c2ccc(F)cc2)c2ccccc21 (stereo partly drawn) [Form CVI, fluvastatin sodium]

Compound: CC(C)n1c(/C=C/C(O)C[C@@H](O)CC(=O)O)c(-c2ccc(F)cc2)c2ccccc21 (stereo partly drawn) [form B, fluvastatin sodium]
hygroscopicity [4]: low hygroscopicity

Compound: CC(C)n1c(/C=C/C(O)C[C@@H](O)CC(=O)O)c(-c2ccc(F)cc2)c2ccccc21 (stereo partly drawn) [Form A, fluvastatin sodium]
hygroscopicity [4]: less hygroscopic
